Experimental data: patent US20210113529A1, “MEDICINE FOR PREVENTING OR TREATING OPHTHALMIC DISEASE ASSOCIATED WITH ENHANCED INTRAOCULAR NEOVASCULARIZATION AND/OR INTRAOCULAR VASCULAR PERMEABILITY” (KYOTO UNIVERSITY, priority 2018, published 2021)

How the values were obtained:
[1] = biological target: S1P1 receptor (Homo sapiens, UniProt P21453); conditions: GTP[γ35S] binding assay; report PLoS One, 2014, 9(10), e110819; read-out: EC50 for S1P1 receptor agonist activity; cited from earlier work
[2] = tested on: retinal vein occlusion (RVO) model; assay: RVO model: retinal non perfusion area; format: in vivo, mice
Protocol: Eight-week-old mice (Japan SLC, Inc., ddy strain) were anesthetized by intramuscularly administering 10 mL/kg of a mixed anesthetic solution diluted so as to contain ketamine (120 mg/kg) and xylazine (6 mg/kg). After that, 0.15 mL of rose bengal (20 mg/kg; WAKO) was administered into the tail vein, and a vein three head systems away from the optic nerve head of the right eye of the mice was irradiated with a laser to occlude a retinal vein. Thus, a retinal non perfusion area was generated. For the occlusion, the laser irradiation was performed 10 times to 15 times per vein. For the laser irradiation, an attachment of a fundus photography apparatus Micron 4 (Phoenix Research Laboratories, Inc., Pleasanton, Calif., USA) was used (wavelength: 532 nm, spot size: 50 μm, irradiation time: 5,000 ms, laser output: 50 mW). Three veins were occluded per eye, and it was confirmed with photographs of the fundus that the laser-irradiated veins had been completely occluded. […]
The retinal flat mount specimen was photographed under a fluorescence microscope (BX50, Olympus) using a high-sensitivity cooling CCD camera (DP30BW, Olympus) through imaging software Metamorph (Universal Imaging Corp., Downingtown, Pa., USA) on an XY motor-operated stage (Sigma Koki Co., Ltd., Tokyo, Japan). […] The ratio of the retinal non perfusion area was quantified using analysis software in Metamorph. […]

[3] = tested on: laser-induced choroidal neovascularization (CNV) model; assay: Laser-induced CNV model: area of CNV in choroidal flat mount; format: in vivo, mice; conditions: Day 14
Protocol: After fluorescence fundus photography had been performed as described above in the section (1), 0.5 mL of fluorescein isothiocyanate dextran (FITC-dextran; 20 mg/mL, Sigma-Aldrich) was administered into the tail vein of the mice. The mice were euthanized by cervical dislocation, and the eyeball was extirpated. The extirpated eyeball was fixed in a 4% paraformaldehyde phosphate buffer for 12 hours. After that, the cornea and lens were excised under a microscope, and the remaining vitreous artery was removed with forceps. Further, the retina was removed, and the choroid was notched 8 points and embedded with Fluoromount (Diagnostic BioSystems) in a flat state to generate a choroidal flat mount specimen. The choroidal flat mount was photographed using a confocal laser scanning microscope (FLUOVIEW FV10i; Olympus, Tokyo, Japan). Next, on the basis of the photographed image, the CNV was encircled using analysis software OLYMPUS FLUOVIEW FV10i (Olympus), and the area thereof was determined as the area of CNV (μm^2). All analyses were performed in a blinded manner. After fluorescence fundus photography had been performed as described above in the section (1), a choroidal flat mount specimen was generated by the same method as in Example 1. The choroidal flat mount was photographed using an all-in-one fluorescence microscope (BZ-X710; Keyence, Osaka, Japan). Next, on the basis of the photographed image, the CNV was encircled using image editing software Image J, and the area thereof was determined as the area of CNV (μm^2). All analyses were performed in a blinded manner.

S1P1 receptor, sequence (P21453 whole entry, the tested form may be a part): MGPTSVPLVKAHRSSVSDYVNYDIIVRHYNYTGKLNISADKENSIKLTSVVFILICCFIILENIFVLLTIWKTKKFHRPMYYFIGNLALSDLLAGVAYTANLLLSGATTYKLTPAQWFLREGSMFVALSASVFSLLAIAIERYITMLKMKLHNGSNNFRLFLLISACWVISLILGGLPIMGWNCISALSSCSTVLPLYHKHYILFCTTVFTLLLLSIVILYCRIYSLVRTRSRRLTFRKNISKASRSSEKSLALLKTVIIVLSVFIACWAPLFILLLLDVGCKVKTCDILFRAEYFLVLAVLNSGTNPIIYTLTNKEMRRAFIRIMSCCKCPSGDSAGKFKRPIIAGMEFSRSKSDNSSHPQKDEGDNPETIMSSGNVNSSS

**Q.** With C[C@H](Oc1ccc(-c2nc(-c3ccc4[nH]cnc4c3)no2)cc1C(F)(F)F)C(F)(F)F.Cl [Compound 1, 5-{5-[3-(trifluoromethyl)-4-{[(2S)-1,1,1-trifluoropropan-2-yl]oxy}phenyl]-1,2,4-oxadiazol-3-yl}-1H-benzimidazole monohydrochloride] as the compound, how does the EC50 [1] read?
**A.** 7.4 nM

**Q.** And the “enlargement of the non perfusion area” value ([2]; early administration: 0.3 mg/kg orally 12 hours before and immediately after laser irradiation)?
**A.** significantly reduced the enlargement of the non perfusion area

**Q.** And the “enlargement of the non perfusion area” value ([2]; late administration: 0.3 mg/kg orally twice at an interval of 12 hours on the 7th day after laser irradiation)?
**A.** significantly reduced the enlargement of the non perfusion area

**Q.** What about the “area of CNV” value ([3]; 0.03 mg/kg orally once daily) of the same compound?
**A.** a decrease in area of CNV

**Q.** And the “area of CNV” value ([3]; 0.3 mg/kg orally once daily)?
**A.** a significant decrease was found

**Q.** And the “reduction ratio of the area of CNV” value ([3]; 0.3 mg/kg orally once daily)?
**A.** 34%
